“And” between values parts separate entries of the source, which are not always exact repeats. Equal entries are not always repeated.
Tested on: A/California/09
Set-up: species or system BALB/c mice
Conditions: mouse, in vivo

For `CCOC(=O)C1=C[C@@H](OC(CC)CC)[C@H](NC(C)=O)[C@@H](N)C1` [oseltamivir], the survival was 10/10 and 0 out of 10 and no survival.
